# Several values for one entry are separate records, joined by “and”; a condition that tells them apart may be missing. Equal values may be shown once. Entries after “also recorded” stand apart in the source; their conditions may differ. Read-outs that look alike come from different tables or passages of the source.
# How the values were obtained:
# [1] = Phase 1 single oral dose pharmacokinetics in healthy adults; type: in vivo; settings: for AUC(0-t): read-out: AUC24 h
# Experimental: This ongoing trial is a Phase 1 randomized, double-blind, placebo-controlled study in male and female healthy adult volunteers aged 18-55 years. All volunteers provided written, informed consent. For the SAD phase, 8-10 volunteers per cohort were randomized 6-8:2 to receive a single oral dose of either Compound 4 0.2 (N=6), 0.6 (N=6), 1.25 (N=8) or 1.8 mg (N=6) or placebo (N=2/dose group) under fasted conditions; following an ˜6-week washout period, the cohort subjects which had received 1.25 mg under fasted conditions in Cohort 4 were given the same 1.25 mg dose (N=7) under fed conditions (a standard meal consumed before dosing), in Cohort 6 (FIG. 1). Escalation of the Compound 4 dose was only permitted following a review of the safety and PK data from the previous cohort.
# (§1) Following a single dose of Compound 4, intensive blood samples were collected over the first 24 hours, samples were then collected daily through Day 7, and weekly samples were collected through Day 35. Plasma concentrations of Compound 4 were evaluated using a validated liquid chromatography with tandem mass spectrometry method; the lower limit of quantification was 1 pg/mL. PK parameters were estimated using non-compartmental analysis (WinNonlin®, Certara, Princeton, NJ, USA). Descriptive statistics were used to summarize plasma concentrations and derived PK parameters of Compound 4. The impact of food on PK parameters was analyzed using geometric least square mean point estimates (mixed-effects model on log-transformed values with treatment as fixed effect and subject as a random effect).
# [2] = cardiovascular safety pharmacology in monkeys; type: in vivo; settings: secondary to an increase in body temperature
# From the text: (§2) Exposure increased more than dose-proportionally at low doses. Variability in exposure was high. • In vitro plasma protein binding was between 79.6% and 94.2% in animals and humans. Volume of distribution after intravenous dosing was high. […] Main metabolic pathways were oxygenation, hydrogenation, dehydrogenation, dealkylation, acetylation, glucuronidation, and/or glutathione conjugation. • In rats, >80% of drug-related material was found in feces, 11% to 20% in bile, and <4% in urine. […] There were no effects on embryofetal development up to 1 mg/kg/dose in rats and 30 mg/kg/dose in rabbits.
# [3] = Phase 1 multiple dose pharmacokinetics in healthy adults; type: in vivo, human
# Experimental: as §1
# Compound 4 was administered every week for 4 weeks in fasted condition at a dose of 1.25 mg.
# [4] = pharmacokinetics and excretion in rat; type: in vivo
# From the text: as §2
# [5] = test system: cytokines and ISGs (ISG15, MX1, OAS1); assay: Phase 1 multiple dose pharmacodynamics in healthy adults; type: in vivo, human; settings: 1.25 mg qw
# Experimental: Serum levels of IFN-α were measured by ELISA. Serum levels of IP-10, IFN-γ, TNF-α, IL-12 (subunit P40), IL-6, IL-1β, IL-1RA, IL-18, MCP-1, MIP-1β, G-CSF, GM-CSF, IL-10, IL-15 were measured by Luminex xMAP technology. The LLOQ for IFN-α was determined at 12.5 pg/mL and at 25 pg/mL for all other cytokines measured. Fold changes for each of the cytokines were calculated compared to predose values or LLOQ-1 values if predose values were below LLOQ.
# IFN-stimulated gene (ISG) expression analysis was conducted for 3 genes, ISG15, MX1, and OAS1, using quantitative polymerase chain reaction (qPCR) on collected whole blood samples. For the ISGs, relative fold changes from baseline were calculated according to the delta delta Cycle threshold (Ct) method (2^[Delta Delta Ct]). Assessments were done for Part 1 predose and postdose: 1.5 hours, 6 hours, 12 hours (Day 1), 24 hours (day 2), 48 hours (Day 3), 96 hours (Day 5), follow-up Week 2. For the Part 2, assessments were done predose and post the first and fourth dose: 2 hours, 4 hours, 12 hours, 24 hours, 48 hours, 96 hours and one week follow-up; and post the second and third doses: 12 hours and 48 hours.
# [6] = 6-month toxicity study in Cynomolgus monkeys; settings: cynomolgus monkey, in vivo
# From the text: as §2
# [7] = 14-week rat toxicity study; type: in vivo; settings: 5 mg/kg biw
# From the text: as §2
# [8] = 6-month toxicity study in rats; settings: rat, in vivo
# From the text: as §2
# HBV-infected PHHs = assay: antiviral activity of compound-stimulated human whole blood and PBMC supernatant in HBV-infected PHHs; type: cell-based
# human whole blood cells = assay: cytokine release in vitro in whole blood cells; type: cell-based
# From the text: as §2
# LEC for Compound 4-induced cytokine release in vitro was determined to be 2 nM.
# [9] = both sexes, human, plasma, oral, 0.2 mg, single dose 0.2 mg fasted, mean ± SD
# [10] = both sexes, human, plasma, oral, 0.6 mg, single dose 0.6 mg fasted, mean ± SD
# [11] = both sexes, human, plasma, oral, 1.25 mg, single dose 1.25 mg fasted, mean ± SD
# [12] = both sexes, human, plasma, oral, 1.25 mg, single dose 1.25 mg fed, mean ± SD
# [13] = both sexes, human, plasma, oral, 1.8 mg, single dose 1.8 mg fasted, mean ± SD
# [14] = after 4 weeks of qw dosing, 1.25 mg
# [15] = 12 hours after the second administration
smiles,measurement,setting,value
CCCCOc1nc(N)c2[nH]cc(Cc3ccc(CN4CCCC4)cc3)c2n1 [Compound 4],"least square mean ratio point estimate of AUC48h, fed vs fasted","[1]; 1.25 mg, 90% CI 65.89-105.71",83.45
same,Predose Level,"[1]; before 1.25 mg fed dose, on average 41 days after 1.25 mg fasted dose, mean ± SD",1.85 pg/mL and 1.85 ± 0.597 pg/mL
same,Cmax,[1]; [9],0.0344 ± 0.0179 ng/mL
same,AUC(0-t),[1]; [9],0.19 ± 0.0972 ng·h/mL
same,Tmax,"[1]; both sexes, human, plasma, oral, 0.2 mg, single dose 0.2 mg fasted, median (range), read-out: tmax",30 min
same,Cmax,[1]; [10],0.109 ± 0.0281 ng/mL
same,AUC(0-t),[1]; [10],0.594 ± 0.21 ng·h/mL
same,Tmax,"[1]; both sexes, human, plasma, oral, 0.6 mg, single dose 0.6 mg fasted, median (range), read-out: tmax",30 min
same,Cmax,[1]; [11],0.143 ± 0.0659 ng/mL
same,AUC(0-t),[1]; [11],0.815 ± 0.251 ng·h/mL
same,Tmax,"[1]; both sexes, human, plasma, oral, 1.25 mg, single dose 1.25 mg fasted, median (range), read-out: tmax",45 min
same,Cmax,[1]; [12],0.152 ± 0.0764 ng/mL
same,AUC(0-t),[1]; [12],0.659 ± 0.194 ng·h/mL
same,Tmax,"[1]; both sexes, human, plasma, oral, 1.25 mg, single dose 1.25 mg fed, median (range), read-out: tmax",30 min
same,Cmax,[1]; [13],0.309 ± 0.136 ng/mL
same,AUC(0-t),[1]; [13],1.37 ng·h/mL
same,Tmax,"[1]; both sexes, human, plasma, oral, 1.8 mg, single dose 1.8 mg fasted, median (range), read-out: tmax",30 min
same,concentration at 41 days,"[1]; both sexes, human, plasma, oral, before 1.25 mg fed dose, on average 41 days after 1.25 mg fasted dose, mean ± SD, read-out: Predose Level",0.00185 ng/mL
same,CL renal,"[1]; both sexes, human, plasma, oral, single dose 1.25 mg fasted, range 1.86-3.81, read-out: mean renal clearance (converted)",42.8 mL/min
same,Tmax,"[1]; both sexes, human, plasma, po, single oral doses 0.2 to 1.8 mg, read-out: tmax, range over doses",30 to 60 min
same,half-life,"[1]; both sexes, human, plasma, single oral doses 0.2 to 1.8 mg, read-out: median t1/2 term, range over doses",5.25 to 36.2 days
same,t1/2term,"[1]; single dose 0.2 mg fasted, median (range)",150 (126-212) h
same,CL/F,"[1]; single dose 0.2 mg fasted, n = 1",149 L/h
same,t1/2term,"[1]; single dose 0.6 mg fasted, median (range)",284 (104-479) h
same,CL/F,"[1]; single dose 0.6 mg fasted, n = 1",244 L/h
same,excreted as unchanged drug in urine within the first 24 hours,[1]; single dose 1.25 mg fasted,less than 0.2%
same,t1/2term,"[1]; single dose 1.25 mg fasted, median (range)",448 (372-502) h
same,CL/F,"[1]; single dose 1.25 mg fasted, n = 3",254 L/h
same,t1/2term,"[1]; single dose 1.25 mg fed, median (range)",591 (448-868) h
same,t1/2term,"[1]; single dose 1.8 mg fasted, median (range)",194 (185-205) h
same,dose proportionality of exposure,[1]; single oral doses 0.2 to 1.8 mg fasted,increased in proportion with the dose; also recorded: dose-proportional pharmacokinetics
same,heart rate and arterial blood pressure,[2],transient increase in heart rate and arterial blood pressure
same,excreted as unchanged drug in urine within the first 24 hours after the first and second dosing,[3]; 1.25 mg qw fasted,Less than 0.22%
same,"terminal elimination, median value",[3]; 1.25 mg qw fasted,244 h
same,mean accumulation ratio for AUC24h,[3]; [14],1.83
same,mean accumulation ratio for AUC72h,[3]; [14],2.27
same,mean accumulation ratio for AUCT,[3]; [14],2.75
same,Cmax,"[3]; human, plasma, oral, 1.25 mg, 1.25 mg qw fasted, SD 67.2, read-out: mean Cmax after the fourth dose",0.235 ng/mL
same,Cmax,"[3]; human, plasma, oral, 1.25 mg, 1.25 mg qw fasted, SD 88.4, read-out: mean Cmax after the first dose",0.186 ng/mL
same,AUC,"[3]; human, plasma, oral, 1.25 mg, 1.25 mg qw fasted, SD 591, read-out: mean AUC24h after the fourth dose",1.76 ng·h/mL
same,AUC,"[3]; human, plasma, oral, 1.25 mg, 1.25 mg qw fasted, SD 874, read-out: mean AUC24h after the first dose",1.21 ng·h/mL
same,concentration at 21 days,"[3]; human, plasma, oral, 1.25 mg qw fasted, read-out: mean Ctrough before the fourth dose",0.0408 ± 0.0489 ng/mL
same,concentration at 7 days,"[3]; human, plasma, oral, 1.25 mg qw fasted, read-out: mean Ctrough before the second dose",0.00717 ± 0.0032 ng/mL
same,bioavailability,"[4]; rat, in vivo, po",15%
same,drug-related material found in feces,[4]; rats,> 80%
same,drug-related material found in urine,[4]; rats,< 4%
same,IFN-α or IP-10 levels before the subsequent dose,[5],values returned to baseline before administration of the subsequent dose
same,PD responses after the last dose compared to the first dose,[5],No enhanced induction of PD responses as well as no evidence for tachyphylaxis
same,fold increase of IFN-α in the subject with cotton wool spots,[5]; [15],8.4 fold
same,maximum IFN-α level in the subject with cotton wool spots,[5]; [15],97 pg/mL
same,NOAEL at 6 months,[6]; q2w,4.5 mg/kg
same,NOAEL at 6 months,[6]; qw,3 mg/kg
same,AUC(0-t),"[6]; 3.0 mg/kg qw or 4.5 mg/kg q2w, read-out: AUC24h at NOAEL",13.2 to 44.8 ng·h/mL
same,Cmax,"[6]; 3.0 mg/kg qw or 4.5 mg/kg q2w, read-out: Cmax at NOAEL",2.56 to 16.4 ng/mL
same,brain inflammation,[7],Brain inflammation occurred
same,AUC(0-t),"[8]; 1.0 mg/kg qw or q2w, read-out: AUC24h at NOAEL",16.6 to 27.3 ng·h/mL
same,Cmax,"[8]; 1.0 mg/kg qw or q2w, read-out: Cmax at NOAEL",3.32 to 7.88 ng/mL
same,NOAEL at 6 months,"[8]; qw or q2w, 6 months",1 mg/kg
same,anti-HBV activity target concentration in vitro,HBV-infected PHHs,3.3 nM
same,maximum decline of HBV DNA compared to DMSO controls,HBV-infected PHHs; 3.3 nM,1.5 log 10
same,maximum decline of HBV RNA compared to DMSO controls,HBV-infected PHHs; 3.3 nM,1.1 log 10
same,maximum decline of HBeAg compared to DMSO controls,HBV-infected PHHs; 3.3 nM,1.3 log 10
same,maximum decline of HBsAg compared to DMSO controls,HBV-infected PHHs; 3.3 nM,0.4 log 10
same,overall LEC for cytokine release in vitro,human whole blood cells,2 nM
same,potency on human versus monkey whole blood cells,human whole blood cells; most cytokines and chemokines tested,more potent on human whole blood cells compared to monkey whole blood cells

# Reference: US12263172B2, “Toll-like receptor agonists for use in the treatment of hepatitis b” (priority 2019, dated 2025)
